Common to all, as to assay: Antifungal activity (GI80), growth inhibition in YPD20 medium by absorbance at 600 nm
Assay type in all cases: cell-based

For assay [1], the system named is C. albicans ATCC MYA-573. As to conditions: minimum concentration for at least 80% cell growth inhibition, 37° C., absorbance 600 nm; for IC80: Candida albicans, read-out: GI80 (μg/ml) C. albicans ATCC MYA-573. As to the method:
(§1) The antifungal activity of the compounds of the invention was determined according to the method mentioned below.
(§2) An YPD20 medium (1% yeast extract, 2% peptone, 20% glucose) was used,
(§3) (2) Preparation of Cell Liquid for Inoculation:
(§4) Cells incubated overnight with Sabouraud dextrose agar at 30° C. were suspended in 0.1% Tween 80-added saline, and then added to a concentrated medium (1.33% yeast extract, 2.67% peptone, 13.33% glucose) so that the final cell concentration could be 5×10^3 cells/ml, thereby preparing a cell liquid for inoculation.
(§5) (3) Production of Chemical Dilution Plate:
(§6) A metered sample was dissolved in dimethyl sulfoxide, and a 2-fold dilution series was prepared using dimethyl sulfoxide. A chemical dilution of 2 μl each was added to a flat-bottom 96-well plate with 40% glucose (48 μl) put in each well, thereby producing a chemical dilution plate.
(§7) (4) Inoculation and Cultivation of Cell Liquid:
(§8) The cell liquid (150 μl) prepared in (2) was added to the chemical dilution plate produced in (3), followed by aerobic static cultivation at 37° C.
(§9) (5) Determination of Antifungal Activity (GI80 Value):
(§10) After cultivation for […], the plate was stirred, and its absorbance (600 nm) was measured. Based on the absorbance as the index, the minimum chemical concentration for at least 80% cell growth inhibition relative to the cell growth in the chemical-free well was computed as a GI80 value.

For assay [2], the system named is C. glabrata ATCC48435. As to conditions: 37° C., absorbance 600 nm; for IC80: Nakaseomyces glabratus, ATCC48435, minimum concentration for at least 80% cell growth inhibition, read-out: GI80 (μg/ml) C. glabrata ATCC48435; for GI80 (μg/ml) C. glabrata ATCC48435: minimum concentration for at least 80% cell growth inhibition. As to the method: as §1, §2, §3, §4, §5, §6, §7, §8, §9, §10

Assay [3] concerns C. albicans ATCC90028. The settings on record: 37° C., absorbance 600 nm; for IC80: Candida albicans, ATCC90028, minimum concentration for at least 80% cell growth inhibition, read-out: GI80 (μg/ml) C. albicans ATCC90028; for GI80 (μg/ml) C. albicans ATCC90028: minimum concentration for at least 80% cell growth inhibition. As to the method:
as §1, §2, §3, §4, §5, §6, §7, §8, §9, §10

In brackets after ≈: the same amount, converted by molar mass.

In the case of `CCOC(=O)[C@@H]1C[C@H]1c1nc2c(C#N)c(C)c(-c3ccccc3)c(N3CC[C@H](N(C)C)C3)c2o1` (relative stereo) [Example 112, Ethyl (1R*,2R*)-2-{4-cyano-7-[(3S)-3-(dimethylamino)pyrrolidin-1-yl]-5-methyl-6-phenyl-1,3-benzoxazol-2-yl}cyclopropanecarboxylate], the values for the IC80 in assay [1], in assay [2] and in assay [3] were 0.063 µg/mL (≈ 0.137 µM), 0.032 µg/mL (≈ 0.0698 µM) and 0.032 µg/mL (≈ 0.0698 µM), respectively.
Turning to `Cc1c(-c2ccccc2)c(N2CC[C@H](N(C)C)C2)c2oc([C@@H]3C[C@H]3C(=O)N(C)C)nc2c1C#N` (relative stereo) [Example 135, (1R*,2R*)-2-[4-Cyano-7-((S)-3-dimethylamino-pyrrolidinyl)-5-methyl-6-phenyl-benzoxazol-2-yl]-cyclopropanecarbonyldimethylamide], the “GI80 (μg/ml) C. albicans ATCC MYA-573” value in assay [1] was 0.125 µg/mL (≈ 0.273 µM). For the same compound, the “GI80 (μg/ml) C. glabrata ATCC48435” value in assay [2] is 0.063 µg/mL (≈ 0.138 µM). Moreover, the “GI80 (μg/ml) C. albicans ATCC90028” value in assay [3] was determined as 0.125 µg/mL (≈ 0.273 µM).
For the compound `Cc1c(-c2ccccc2)c(N2CC[C@H](N(C)C)C2)c2oc(C(C)(C)COCc3ccccc3)nc2c1C#N` [Example 13, 2-[2-(Benzyloxy)-1,1-dimethylethyl]-7-[(3S)-3-(dimethylamino)pyrrolidin-1-yl]-5-methyl-6-phenyl-1,3-benzoxazole-4-carbonitrile], the IC80 came to 0.125 µg/mL (≈ 0.246 µM) in assay [1], 0.032 µg/mL (≈ 0.0629 µM) in assay [2] and 0.063 µg/mL (≈ 0.124 µM) in assay [3].
The corresponding values for `Cc1c(-c2ccccc2)c(N2CC[C@H](N(C)C)C2)c2oc(-c3ccco3)nc2c1C#N` [Example 34, 7-[(3S)-3-(Dimethylamino)pyrrolidin-1-yl]-2-(2-furyl)-5-methyl-6-phenyl-1,3-benzoxazole-4-carbonitrile] are 0.25 µg/mL (≈ 0.606 µM), 0.032 µg/mL (≈ 0.0776 µM) and 0.25 µg/mL (≈ 0.606 µM).
For the compound `Cc1c(-c2ccccc2)c(N2CC[C@H](N(C)C)C2)c2oc(C(=O)N(C)CCO)nc2c1C#N` [Example 49, 4-Cyano-7-[(3S)-3-(dimethylamino)pyrrolidin-1-yl]N-(2-hydroxyethyl)-N,5-dimethyl-6-phenyl-1,3-benzoxazole-2-carboxamide], the IC80 in assay [1] was determined as 0.5 µg/mL (≈ 1.12 µM); in assay [2], 0.063 µg/mL (≈ 0.141 µM); in assay [3] it was 0.5 µg/mL (≈ 1.12 µM).
As for `Cc1c(-c2ccccc2)c(N2CC[C@H](N(C)C)C2)c2oc(C(=O)N(C)CC(=O)N(C)C)nc2c1C#N` [Example 50, 4-Cyano-N-[2-(dimethylamino)-2-oxoethyl]-7-[(3S)-3-(dimethylamino)pyrrolidin-1-yl]-N,5-dimethyl-6-phenyl-1,3-benzoxazole-2-carboxamide], the IC80 worked out at 2 µg/mL (≈ 4.09 µM) in assay [1], 0.25 µg/mL (≈ 0.512 µM) in assay [2] and 2 µg/mL (≈ 4.09 µM) in assay [3].
For `CN[C@H]1CCN(c2c(-c3csc(C)n3)c(C)c(C#N)c3nc(C(=O)N(C)C)oc23)C1` [Example 52], in assay [1], the “GI80 (μg/ml) C. albicans ATCC MYA-573” value was determined as 1 µg/mL (≈ 2.36 µM). Besides, the “GI80 (μg/ml) C. glabrata ATCC48435” value in assay [2] came out at 0.25 µg/mL (≈ 0.589 µM). Further, in assay [3], the “GI80 (μg/ml) C. albicans ATCC90028” value worked out at 1 µg/mL (≈ 2.36 µM).
Regarding `CC(=O)N(C)c1nc2c(C#N)c(C)c(-c3ccccc3)c(N3CC[C@H](N(C)C)C3)c2o1` [Example 54, N-{4-Cyano-7-[(3S)-3-(dimethylamino)pyrrolidin-1-yl]-5-methyl-6-phenyl-1,3-benzoxazol-2-yl}-N-methylacetamide], the figures for the IC80 in assay [1], in assay [2] and in assay [3] were 0.25 µg/mL (≈ 0.599 µM), 0.063 µg/mL (≈ 0.151 µM) and 0.125 µg/mL (≈ 0.299 µM), respectively.
Regarding `Cc1c(-c2ccccc2)c(N2CC[C@H](N(C)C)C2)c2oc(N(C)C)nc2c1C#N` [Example 56, 2-(Dimethylamino)-7-[(3S)-3-(dimethylamino)pyrrolidin-1-yl]-5-methyl-6-phenyl-1,3-benzoxazole-4-carbonitrile], the IC80 in assay [1] was determined as 0.5 µg/mL (≈ 1.28 µM); in assay [2] it was 0.063 µg/mL (≈ 0.162 µM); in assay [3] it was 0.125 µg/mL (≈ 0.321 µM).
The corresponding values for `Cc1c(-c2ccccc2)c(N2CC[C@H](N(C)C)C2)c2oc(N(C)C(C)(C)C)nc2c1C#N` [Example 62, 2-(N-tert-Butyl-N-methylamino)-7-[(3S)-3-(dimethylamino)pyrrolidin-1-yl]-5-methyl-6-phenyl-1,3-benzoxazole-4-carbonitrile] are 0.063 µg/mL (≈ 0.146 µM), 0.032 µg/mL (≈ 0.0741 µM) and 0.063 µg/mL (≈ 0.146 µM).
As to `Cc1c(-c2ccccc2)c(N2CC[C@H](N(C)C)C2)c2oc(N3CC(C(=O)O)C3)nc2c1C#N` [Example 67, 1-{4-Cyano-7-[(3S)-3-(dimethylamino)pyrrolidin-1-yl]-5-methyl-6-phenyl-1,3-benzoxazol-2-yl}-azetidine-3-carboxylic acid], the IC80 is > 4 µg/mL in assay [1], 0.25 µg/mL (≈ 0.561 µM) in assay [2] and > 4 µg/mL in assay [3].
As to `Cc1c(-c2ccccc2)c(N2CC[C@H](N(C)C)C2)c2oc(N(C)Cc3ncn[nH]3)nc2c1C#N` [Example 72, 7-[(3S)-3-(Dimethylamino)pyrrolidin-1-yl]-5-methyl-2-[methyl(1H-1,2,4-triazol-5-ylmethyl)amino]-6-phenyl-1,3-benzoxazole-4-carbonitrile], the values for the IC80 in assay [1], in assay [2] and in assay [3] were 0.5 µg/mL (≈ 1.1 µM), 0.125 µg/mL (≈ 0.274 µM) and 0.5 µg/mL (≈ 1.1 µM), respectively.
In the case of `Cc1c(-c2cc(F)cc(F)c2)c(N2CC[C@H](N(C)C)C2)c2oc(C3CC3)nc2c1C#N` [Example 82, 2-Cyclopropyl-6-(3,5-difluorophenyl)-7-[(3S)-3-(dimethylamino)pyrrolidin-1-yl]-5-methyl-1,3-benzoxazole-4-carbonitrile], the IC80 in assay [1] worked out at 0.125 µg/mL (≈ 0.296 µM); in assay [2], 0.032 µg/mL (≈ 0.0757 µM); in assay [3], 0.063 µg/mL (≈ 0.149 µM).
As to `Cc1c(-c2cccc(F)c2F)c(N2CC[C@H](N(C)C)C2)c2oc(C3CC3)nc2c1C#N` [Example 83, 2-Cyclopropyl-6-(2,3-difluorophenyl)-7-[(3S)-3-(dimethylamino)pyrrolidin-1-yl]-5-methyl-1,3-benzoxazole-4-carbonitrile], the values for the IC80 in assay [1], in assay [2] and in assay [3] were 0.5 µg/mL (≈ 1.18 µM), 0.125 µg/mL (≈ 0.296 µM) and 0.5 µg/mL (≈ 1.18 µM), respectively.
Take `Cc1c(-c2ccccc2)c(N2CC[C@H](N(C)C)C2)c2oc(-c3nccs3)nc2c1C#N` [Example 93, 7-[(3S)-3-(Dimethylamino)pyrrolidin-1-yl]-5-methyl-6-phenyl-2-(1,3-thiazol-2-yl)-1,3-benzoxazole-4-carbonitrile]: the values for the IC80 in assay [1], in assay [2] and in assay [3] were 0.125 µg/mL (≈ 0.291 µM), 0.032 µg/mL (≈ 0.0745 µM) and 0.125 µg/mL (≈ 0.291 µM), respectively.
On to `Cc1c(-c2ccccc2)c(N2CC[C@H](N(C)C)C2)c2oc(C3CCC3)nc2c1C#N` [Example 106, 2-Cyclobutyl-7-[(3S)-3-(dimethylamino)pyrrolidin-1-yl]-5-methyl-6-phenyl-1,3-benzoxazole-4-carbonitrile], for which the IC80 in assay [1] was 0.125 µg/mL (≈ 0.312 µM); in assay [2], < 0.016 µg/mL; in assay [3], 0.063 µg/mL (≈ 0.157 µM).
The corresponding values for `Cc1c(-c2ccccc2)c(N2CC[C@H](N(C)C)C2)c2oc(Cc3ccco3)nc2c1C#N` [Example 122, 7-[(3S)-3-(Dimethylamino)pyrrolidin-1-yl]-2-(2-furylmethyl)-5-methyl-6-phenyl-1,3-benzoxazole-4-carbonitrile] are 0.5 µg/mL (≈ 1.17 µM), 0.125 µg/mL (≈ 0.293 µM) and 0.5 µg/mL (≈ 1.17 µM).
In the case of `CC(=O)NC1CN(c2nc3c(C#N)c(C)c(-c4ccccc4)c(N4CC[C@H](N(C)C)C4)c3o2)C1` [Example 126], the “GI80 (μg/ml) C. albicans ATCC MYA-573” value in assay [1] worked out at 0.5 µg/mL (≈ 1.09 µM). Moreover, in assay [2], the “GI80 (μg/ml) C. glabrata ATCC48435” value amounted to 0.125 µg/mL (≈ 0.273 µM). Also, the “GI80 (μg/ml) C. albicans ATCC90028” value in assay [3] is 0.5 µg/mL (≈ 1.09 µM).
For `Cc1c(-c2ccccc2)c(N2CC[C@H](N(C)C)C2)c2oc(N3CCCC3=O)nc2c1C#N` [Example 129], the “GI80 (μg/ml) C. albicans ATCC MYA-573” value in assay [1] was 0.5 µg/mL (≈ 1.16 µM). The “GI80 (μg/ml) C. glabrata ATCC48435” value in assay [2] came out at 0.063 µg/mL (≈ 0.147 µM). Further, the “GI80 (μg/ml) C. albicans ATCC90028” value in assay [3] was determined as 0.25 µg/mL (≈ 0.582 µM).
For the compound `CN[C@H]1CCN(c2c(-c3ccccc3)c(C)c(C#N)c3nc(C(=O)N(C)CCF)oc23)C1` [Example 134, 4-Cyano-N-(2-fluoroethyl)-N,5-dimethyl-7-[(3S)-3-(methylamino)pyrrolidin-1-yl]-6-phenyl-1,3-benzoxazole-2-carboxamide], the IC80 in assay [1] is 0.5 µg/mL (≈ 1.15 µM); in assay [2] it was 0.125 µg/mL (≈ 0.287 µM); in assay [3], 0.5 µg/mL (≈ 1.15 µM).
In the case of `CN[C@H]1CCN(c2c(-c3ccccc3)c(CF)c(C#N)c3nc(C4CC4)oc23)C1` [Example 140, 2-Cyclopropyl-5-fluoromethyl-7-[(3S)-3-(methylamino)pyrrolidin-1-yl]-6-phenyl-1,3-benzoxazole-4-carbonitrile], the results for the IC80 in assay [1], in assay [2] and in assay [3] were 0.5 µg/mL (≈ 1.28 µM), 0.125 µg/mL (≈ 0.32 µM) and 0.5 µg/mL (≈ 1.28 µM), respectively.
Regarding `Cc1c(-c2ccsc2)c(N2CC[C@H](N(C)C)C2)c2oc(C3CC3)nc2c1C#N` [Example 144-1, 2-Cyclopropyl-7-[(3S)-3-(dimethylamino)pyrrolidin-1-yl]-5-methyl-6-(thiophen-3-yl)-1,3-benzoxazole-4-carbonitrile], the IC80 in assay [1] worked out at 0.25 µg/mL (≈ 0.637 µM); in assay [2], 0.032 µg/mL (≈ 0.0815 µM); in assay [3], 0.25 µg/mL (≈ 0.637 µM).
